± gives the expanded uncertainty stated by the source.
Assay: activity coefficient (dimensionless); of the first substance listed, at infinite dilution; xn = mol fraction of the nth substance listed
Settings: Liquid, Chromatography, x1 = 0

| Structure (SMILES) | activity coefficient (303.15 K) | activity coefficient (313.15 K) | activity coefficient (323.15 K) | activity coefficient (333.15 K) | activity coefficient (343.15 K) | activity coefficient (353.15 K) | activity coefficient (363.15 K) |
| --- | --- | --- | --- | --- | --- | --- | --- |
| Cc1ccccc1C [1,2-dimethylbenzene] + CCCCCCn1cc[n+](C)c1.O=S(=O)([O-])C(F)(F)F | 2.39 ± 0.25 | 2.47 ± 0.26 | 2.56 ± 0.27 | 2.64 ± 0.28 | 2.67 ± 0.28 | 2.72 ± 0.28 | 2.8 ± 0.29 |
| Cc1cccc(C)c1 [1,3-dimethylbenzene] + CCCCCCn1cc[n+](C)c1.O=S(=O)([O-])C(F)(F)F | 2.82 ± 0.3 | 2.88 ± 0.3 | 2.97 ± 0.31 | 3.03 ± 0.32 | 3.12 ± 0.33 | 3.19 ± 0.34 | 3.25 ± 0.34 |
| Cc1ccc(C)cc1 [1,4-dimethylbenzene] + CCCCCCn1cc[n+](C)c1.O=S(=O)([O-])C(F)(F)F | 2.76 ± 0.29 | 2.84 ± 0.3 | 2.91 ± 0.3 | 2.97 ± 0.31 | 3.08 ± 0.32 | 3.16 ± 0.33 | 3.22 ± 0.34 |
| CC(C)CC(C)(C)C [2,2,4-trimethylpentane] + CCCCCCn1cc[n+](C)c1.O=S(=O)([O-])C(F)(F)F | 27.5 ± 2.9 | 26.9 ± 2.8 | 26.7 ± 2.8 | 26.3 ± 2.8 | 25.9 ± 2.7 | 25.7 ± 2.7 | 25.4 ± 2.7 |
| c1ccccc1 [benzene] + CCCCCCn1cc[n+](C)c1.O=S(=O)([O-])C(F)(F)F | 1.43 ± 0.15 | 1.48 ± 0.15 | 1.5 ± 0.16 | 1.55 ± 0.16 | 1.6 ± 0.2 | 1.64 ± 0.17 | 1.65 ± 0.17 |
| C1CCCCC1 [cyclohexane] + CCCCCCn1cc[n+](C)c1.O=S(=O)([O-])C(F)(F)F | 11 ± 1.1 | 10.9 ± 1.1 | 10.8 ± 1.1 | 10.7 ± 1.1 | 10.6 ± 1.1 | 10.5 ± 1.1 | 10.5 ± 1.1 |
| C1=CCCCC1 [cyclohexene] + CCCCCCn1cc[n+](C)c1.O=S(=O)([O-])C(F)(F)F | 6.12 ± 0.64 | 6.2 ± 0.65 | 6.26 ± 0.66 | 6.37 ± 0.67 | 6.43 ± 0.68 | 6.5 ± 0.68 | 6.55 ± 0.69 |
| CCCCCCCCCC [decane] + CCCCCCn1cc[n+](C)c1.O=S(=O)([O-])C(F)(F)F | 457 ± 48 | 357 ± 38 | 279 ± 29 | 227 ± 24 | 184 ± 19 | 148 ± 16 | 112 ± 12 |
| CCc1ccccc1 [ethylbenzene] + CCCCCCn1cc[n+](C)c1.O=S(=O)([O-])C(F)(F)F | 2.88 ± 0.3 | 2.94 ± 0.31 | 2.99 ± 0.31 | 3.04 ± 0.32 | 3.12 ± 0.33 | 3.21 ± 0.34 | 3.27 ± 0.34 |
| CCCCCCC [heptane] + CCCCCCn1cc[n+](C)c1.O=S(=O)([O-])C(F)(F)F | 26.9 ± 2.8 | 26.7 ± 2.8 | 26.6 ± 2.8 | 26.5 ± 2.8 | 26.4 ± 2.8 | 26.3 ± 2.8 | 26.1 ± 2.7 |
| CCCCCC [hexane] + CCCCCCn1cc[n+](C)c1.O=S(=O)([O-])C(F)(F)F | 21.3 ± 2.2 | 21.2 ± 2.2 | 21.1 ± 2.2 | 20.9 ± 2.2 | 20.8 ± 2.2 | 20.7 ± 2.2 | 20.5 ± 2.2 |
| CC1CCCCC1 [methylcyclohexane] + CCCCCCn1cc[n+](C)c1.O=S(=O)([O-])C(F)(F)F | 14.1 ± 1.5 | 14 ± 2 | 13.9 ± 1.5 | 13.8 ± 1.4 | 13.7 ± 1.4 | 13.6 ± 1.4 | 13.5 ± 1.4 |
| CCCCCCCCC [nonane] + CCCCCCn1cc[n+](C)c1.O=S(=O)([O-])C(F)(F)F | 45.4 ± 4.8 | 44.6 ± 4.7 | 43.7 ± 4.6 | 42.3 ± 4.5 | 41.8 ± 4.4 | 40.3 ± 4.2 | 39.9 ± 4.2 |
| CCCCCCCC [octane] + CCCCCCn1cc[n+](C)c1.O=S(=O)([O-])C(F)(F)F | 35 ± 3.7 | 34.5 ± 3.6 | 33.9 ± 3.6 | 33.4 ± 3.5 | 33.1 ± 3.5 | 32.7 ± 3.4 | 32 ± 3.4 |
| CCCCC [pentane] + CCCCCCn1cc[n+](C)c1.O=S(=O)([O-])C(F)(F)F | 14.8 ± 1.6 | 14.6 ± 1.5 | 14.5 ± 1.5 | 14.3 ± 1.5 | 14.1 ± 1.5 | 14 ± 1.5 | 13.9 ± 1.5 |
| C=Cc1ccccc1 [styrene] + CCCCCCn1cc[n+](C)c1.O=S(=O)([O-])C(F)(F)F | 1.7 ± 0.2 | 1.73 ± 0.18 | 1.76 ± 0.18 | 1.81 ± 0.19 | 1.84 ± 0.19 | 1.85 ± 0.19 | 1.88 ± 0.2 |
| Cc1ccccc1 [toluene] + CCCCCCn1cc[n+](C)c1.O=S(=O)([O-])C(F)(F)F | 1.98 ± 0.21 | 2.03 ± 0.21 | 2.06 ± 0.22 | 2.14 ± 0.23 | 2.2 ± 0.23 | 2.25 ± 0.24 | 2.27 ± 0.24 |

— the NIST ThermoML archive (doi:10.1021/je800043a)
